Measurements reported in ChEMBL document CHEMBL1142618, “Mycalamide D, a new cytotoxic amide from the New Zealand marine sponge Mycale species” (J Nat Prod, 2000).

Experiments:
Assay type in all cases: functional, cell-based
[1] = tested on: SH-SY5Y; assay: Cytotoxicity against human SH-SY5Y cells after 96 hrs by MTT assay
[2] = tested on: P388; assay: Cytotoxicity against mouse P388 cells after 96 hrs by MTT assay; conditions: P388, 96 h
[3] = tested on: LLC-PK1; assay: Cytotoxicity against pig LLC-PK1 cells after 96 hrs by MTT assay; conditions: Sus scrofa, LLC-PK1, 96 h
[4] = Cytotoxicity against human H441 cells after 96 hrs by MTT assay; conditions: NCI-H441, 96 h

## C=C1C[C@](OC)([C@H](O)C(=O)N[C@H]2OCO[C@H]3[C@@H]2O[C@H](C[C@H](O)CO)C(C)(C)[C@@H]3OC)O[C@H](C)[C@@H]1C [MYCALAMIDE A]
[1]
  IC50: 0.52 nM
[2]
  IC50: 5.2 nM
[3]
  IC50: 0.65 nM
[4]
  IC50: 0.46 nM

## C=C1C[C@](OC)([C@H](O)C(=O)N[C@H]2OCO[C@H]3[C@@H]2O[C@H](C[C@@H](CO)OC)C(C)(C)[C@@H]3OC)O[C@H](C)[C@@H]1C [MYCALAMIDE B]
[1]
  IC50: 6.42 nM
[2]
  IC50: 1.3 nM
[3]
  IC50: 19.4 nM
[4]
  IC50: 9.3 nM

## C=C1C[C@](OC)([C@H](O)C(=O)N[C@H]2OCO[C@H]3[C@@H]2O[C@H](C[C@H](O)CO)C(C)(C)[C@@H]3O)O[C@H](C)[C@@H]1C [MYCALAMIDE D]
[2]
  IC50: 65.5 nM
